Source: US8580762B2, “Substituted purine and 7-deazapurine compounds” (Epizyme, Inc., priority 2010, dated 2013)
Read-outs that look alike come from different tables or passages of the source.

Target: DOT1L(1-416) (Homo sapiens, UniProt Q8TEK3)
Assay: Determination of IC50: DOT1L(1-416) methyltransferase assay, 3H-SAM, oligonucleosome substrate, Flashplate
Assay type: biochemical
Procedure: Determination of IC50. Test compounds were serially diluted 3 fold in DMSO for 10 points and 1 μl was plated in a 384 well microtiter plate. […] 10 μl per well of substrate mix (same assay buffer with 200 nM S-[methyl-^3H]-adenosyl-L methionine, 600 nM of unlabeled […], and 20 nM oligonueleosome) was added to initiate the reaction. Reaction was incubated for 120 minutes at room temperature and quenched with 10 μl per well of 100 μM S-methyl-adenosyl-L methionine. For detection, substrate from 50 μl of reaction was immobilized on a 384 well Streptavidin coated Flashplate (Perkin Elmer) (also coated with 0.2% polyethyleneimine) and read on a Top Count scintillation counter (Perkin Elmer).

[1] = class symbols, read-out: DOT1L IC50

DOT1L(1-416), sequence (Q8TEK3 1-416): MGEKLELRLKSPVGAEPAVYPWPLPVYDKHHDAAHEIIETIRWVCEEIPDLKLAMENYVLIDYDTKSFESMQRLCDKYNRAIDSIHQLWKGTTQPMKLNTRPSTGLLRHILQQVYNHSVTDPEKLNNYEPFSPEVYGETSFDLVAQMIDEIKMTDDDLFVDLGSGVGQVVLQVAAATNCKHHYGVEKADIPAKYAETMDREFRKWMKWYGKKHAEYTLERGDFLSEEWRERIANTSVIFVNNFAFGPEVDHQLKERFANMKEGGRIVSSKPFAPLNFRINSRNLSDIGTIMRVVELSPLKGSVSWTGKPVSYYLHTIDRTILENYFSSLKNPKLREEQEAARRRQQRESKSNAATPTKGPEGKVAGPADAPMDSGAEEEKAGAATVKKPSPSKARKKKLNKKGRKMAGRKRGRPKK

IC50 [1] [nM]	IC50 (DOT1L IC50, class symbols) [nM]	SMILES
< 100		CN(C[C@H]1C[C@@H](n2ccc3c(N)ncnc32)[C@H](O)[C@@H]1O)C1CC(CCc2nc3cc(C(F)(F)F)c(Cl)cc3[nH]2)C1 (stereo partly drawn) [Compound 7, (1R,2S,3R,5R)-3-(4-amino-7H-pyrrolo[2,3-d]pyrimidin-7-yl)-5-(((3-(2-(6-chloro-5-(trifluoromethyl)-1H-benzo[d]imidazol-2-yl)ethyl)cyclobutyl)(methyl)amino)methyl)cyclopentane-1,2-diol]
< 100		CCN(C[C@H]1C[C@@H](n2ccc3c(N)ncnc32)[C@H](O)[C@@H]1O)[C@H]1C[C@H](CCc2nc3cc(C(C)(C)C)ccc3[nH]2)C1 [Compound 49, (1R,2S,3R,5R)-3-(4-amino-7H-pyrrolo[2,3-d]pyrimidin-7-yl)-5-((((1s,3R)-3-(2-(5-(tert-butyl)-1H-benzo[d]imidazol-2-yl)ethyl)cyclobutyl)(ethyl)amino)methyl)cyclopentane-1,2-diol]
< 100		CC(C)N(C[C@H]1O[C@@H](n2cnc3c(N)ncnc32)[C@H](O)[C@@H]1O)[C@H]1C[C@H](CCc2nc3cc(C4(C#N)CC4)ccc3[nH]2)C1 [Compound 136, 1-(2-(2-((1R,3s)-3-((((2R,3S,4R,5R)-5-(6-amino-9H-purin-9-yl)-3,4-dihydroxytetrahydro-furan-2-yl)methyl)(isopropyl)amino)cyclobutyl)ethyl)-1H-benzo[d]imidazol-5-yl)cyclo-propanecarbonitrile]
< 100		CCN(C[C@H]1O[C@@H](n2ccc3c(N)ncnc32)[C@H](O)[C@@H]1O)[C@H]1C[C@H](CCc2nc3cc(C(C)(C)C)ccc3[nH]2)C1 [Compound 88, (2R,3R,4S,5R)-2-(4-amino-7H-pyrrolo[2,3-d]pyrimidin-7-yl)-5-((((1s,3R)-3-(2-(5-(tert-butyl)-1H-benzo[d]imidazol-2-yl)ethyl)cyclobutyl) (ethyl)amino)methyl) tetrahydrofuran-3,4-diol]
< 100		CN(C[C@H]1C[C@@H](n2ccc3c(N)ncnc32)[C@H](O)[C@@H]1O)[C@H]1C[C@H](CCc2nc3cc(Cl)c(Cl)cc3[nH]2)C1 [Compound 58, (1R,2S,3R,5R)-3-(4-amino-7H-pyrrolo[2,3-d]pyrimidin-7-yl)-5-((((1s,3R)-3-(2-(5,6-dichloro-1H-benzo[d]imidazol-2-yl)ethyl)cyclobutyl)(methyl)amino)methyl)cyclopentane-1,2-diol]
< 100		CN(C[C@H]1C[C@@H](n2ccc3c(N)ncnc32)[C@H](O)[C@@H]1O)C1CC(CCc2nc3cc(Cl)c(Cl)cc3[nH]2)C1 (stereo partly drawn) [Compound 23, (1R,2S,3R,5R)-3-(4-amino-7H-pyrrolo[2,3-d]pyrimidin-7-yl)-5-(((3-(2-(5,6-dichloro-1H-benzo[d]imidazol-2-yl)ethyl)cyclobutyl)(methyl)amino)methyl)cyclopentane-1,2-diol]
< 100		CN(C[C@H]1O[C@@H](n2cnc3c(N)ncnc32)[C@H](O)[C@@H]1O)[C@H]1C[C@H](CCc2nc3cc(C4(C#N)CC4)ccc3[nH]2)C1 [Compound 138, 1-(2-(2-((1R,3s)-3-((((2R,3S,4R,5R)-5-(6-amino-9H-purin-9-yl)-3,4-dihydroxytetrahydro-furan-2-yl)methyl)(methyl)amino)cyclobutyl)ethyl)-1H-benzo[d]imidazol-5-yl)cyclo-propanecarbonitrile]
	< 100	CC(C)[N+]([O-])(C[C@H]1O[C@@H](n2cnc3c(N)ncnc32)[C@H](O)[C@@H]1O)[C@H]1C[C@@H](CCc2nc3cc(C(C)(C)C)ccc3[nH]2)C1 (stereo partly drawn) [Compound 106, (1r,3S)-N-(((2R,3S,4R,5R)-5-(6-amino-9H-purin-9-yl)-3,4-dihydroxy-tetrahydrofuran-2-yl)methyl)-3-(2-(5-(tert-butyl)-1H-benzo[d]imidazol-2-yl)ethyl)-N-isopropyl-cyclobutanamine oxide]
< 100		CC(C)N(C[C@H]1O[C@@H](n2cnc3c(N)ncnc32)[C@H](O)[C@@H]1O)[C@H]1C[C@@H](CCc2nc3cc(C4CCC4)ccc3[nH]2)C1 [Compound 115, (2R,3R,4S,5R)-2-(6-amino-9H-purin-9-yl)-5-((((1r,3S)-3-(2-(5-cyclobutyl-1H-benzo[d]imidazol-2-yl)ethyl)cyclobutyl) (isopropyl)amino)methyl)tetrahydrofuran-3,4-diol]
10000 to 50000		CN(C[C@H]1O[C@@H](n2cnc3c(N)ncnc32)[C@H](O)[C@@H]1O)C1CC(NC(=O)Nc2ccc(C(C)(C)C)cc2)C1 (stereo partly drawn) [Compound 8, 1-(3-((((2R,3S,4R,5R)-5-(6-amino-9H-purin-9-yl)-3,4-dihydroxytetrahydrofuran-2-yl)methyl)(methyl)amino)cyclobutyl)-3-(4-(tert-butyl)phenyl)urea]
< 100		CN(C[C@H]1O[C@@H](n2ccc3c(N)ncnc32)[C@H](O)[C@@H]1O)[C@H]1C[C@H](CCc2nc3cc(C(C)(C)C)ccc3[nH]2)C1 [Compound 92, (2R,3R,4S,5R)-2-(4-amino-7H-pyrrolo[2,3-d]pyrimidin-7-yl)-5-((((1s,3R)-3-(2-(5-(tert-butyl)-1H-benzo[d]imidazol-2-yl)ethyl)cyclobutyl) (methyl)amino)methyl) tetrahydrofuran-3,4-diol]
< 100		CN(C[C@H]1C[C@@H](n2ccc3c(N)ncnc32)[C@H](O)[C@@H]1O)[C@H]1C[C@H](CCc2nc3cc(C(F)(F)F)c(Cl)cc3[nH]2)C1 [Compound 12, (1R,2S,3R,5R)-3-(4-amino-7H-pyrrolo[2,3-d]pyrimidin-7-yl)-5-((((1s,3R)-3-(2-(6-chloro-5-(trifluoromethyl)-1H-benzo[d]imidazol-2-yl)ethyl)cyclobutyl)(methyl)amino)methyl)cyclopentane-1,2-diol]
< 100		COCC(C)(C)c1ccc2[nH]c(CCC3CC(N(C[C@H]4O[C@@H](n5cnc6c(N)ncnc65)[C@H](O)[C@@H]4O)C(C)C)C3)nc2c1 (stereo partly drawn) [Compound 118, (2R,3R,4S,5R)-2-(6-amino-9H-purin-9-yl)-5-((isopropyl(3-(2-(5-(1-methoxy-2-methylpropan-2-yl)-1H-benzo[d]imidazol-2-yl)ethyl)cyclobutyl)amino)methyl) tetrahydrofuran-3,4-diol]
< 100		CC(C)(C)c1ccc2[nH]c(CC[C@H]3C[C@@H](NC[C@H]4O[C@@H](n5cnc6c(N)ncnc65)[C@H](O)[C@@H]4O)C3)nc2c1 [Compound 98, (2R,3R,4S,5R)-2-(6-amino-9H-purin-9-yl)-5-((((1r,3S)-3-(2-(5-(tert-butyl)-1H-benzo[d]imidazol-2-yl)ethyl)cyclobutyl)amino)methyl) tetrahydrofuran-3,4-diol]

SMILES	IC50 [1] [nM]	IC50 (DOT1L IC50, class symbols) [nM]
CN(C[C@H]1O[C@@H](n2cnc3c(N)ncnc32)[C@H](O)[C@@H]1O)[C@H]1C[C@@H](CCc2nc3cc(C4COC4)ccc3[nH]2)C1 [Compound 63]	100 to 1000	
CN(C[C@H]1O[C@@H](n2cnc3c(N)ncnc32)[C@H](O)[C@@H]1O)[C@H]1C[C@@H](CCc2nc3cc(OC(F)(F)F)ccc3[nH]2)C1 [Compound 96, (2R,3R,4S,5R)-2-(6-amino-9H-purin-9-yl)-5-((methyl((1r,3S)-3-(2-(5-(trifluoromethoxy)-1H-benzo[d]imidazol-2-yl)ethyl)cyclobutyl)amino)methyl)tetrahydrofuran-3,4-diol]	< 100	
